Reference: US6410249B1, “Odorant receptors” (priority 1999, dated 2002)

Tests used:
[1] = test system: catfish olfactory neurons; settings: 100 μM, catfish olfactory epithelium; cited from earlier work
[2] = test system: goldfish olfactory system; settings: cited from earlier work
receptor 5.24 [3] = biological target: T1, receptor 5.24 (Carassius auratus, UniProt Q9PW88); test: cAMP accumulation in receptor 5.24-expressing HEK 293 cells; format: cell-based, goldfish; settings: 0.1 mM or 10 mM
T1 construct: The receptor 5.24 full length cDNA detects 1-2 bands in genomic DNA blots; expressed in transfected cells; host or cells: HEK 293 cells expressing SV40 large T antigen (293-TSA)
T1 sequence (Q9PW88 25-877): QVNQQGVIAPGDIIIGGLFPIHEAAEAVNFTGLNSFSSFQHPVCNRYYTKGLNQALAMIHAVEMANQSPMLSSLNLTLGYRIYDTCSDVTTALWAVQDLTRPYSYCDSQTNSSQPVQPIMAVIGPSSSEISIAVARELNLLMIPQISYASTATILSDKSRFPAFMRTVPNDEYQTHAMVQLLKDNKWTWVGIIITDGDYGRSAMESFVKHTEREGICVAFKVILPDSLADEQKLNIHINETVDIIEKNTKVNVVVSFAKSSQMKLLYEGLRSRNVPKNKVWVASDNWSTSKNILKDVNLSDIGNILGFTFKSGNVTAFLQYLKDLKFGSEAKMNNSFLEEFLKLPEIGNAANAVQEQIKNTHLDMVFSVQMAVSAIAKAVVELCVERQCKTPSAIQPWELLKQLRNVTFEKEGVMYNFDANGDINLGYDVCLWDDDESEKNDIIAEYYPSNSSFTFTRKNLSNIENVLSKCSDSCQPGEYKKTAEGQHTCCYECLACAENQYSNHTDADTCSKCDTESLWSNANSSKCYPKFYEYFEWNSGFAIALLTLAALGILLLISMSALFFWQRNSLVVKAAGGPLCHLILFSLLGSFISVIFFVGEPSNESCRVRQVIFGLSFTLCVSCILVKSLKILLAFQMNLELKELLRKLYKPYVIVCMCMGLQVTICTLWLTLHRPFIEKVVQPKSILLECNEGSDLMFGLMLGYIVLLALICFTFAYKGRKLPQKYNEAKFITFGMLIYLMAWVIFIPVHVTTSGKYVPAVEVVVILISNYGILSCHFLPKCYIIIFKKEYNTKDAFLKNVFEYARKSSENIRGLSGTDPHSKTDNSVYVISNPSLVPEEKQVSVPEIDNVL
Description: High-Affinity Binding of Radiolabeled L-Arginine to the Cloned Goldfish Odorant Receptor. To determine the affinity of the cloned goldfish amino acid receptor for basic amino acids, we characterized the ligand-receptor interaction by radiolabeled ligand binding to receptors expressed in mammalian cells. Human embryonic kidney (HEK) 293 cells were transfected with expression plasmids containing the receptor 5.24 cDNA insert. […] We next wished to determine what second messenger pathway receptor 5.24 couples to in HEK 293 cells. Control cells or cells expressing receptor 5.24 were exposed to varying concentrations of arginine and assayed for the accumulation of IP3 and cAMP.
IP3 and cAMP Measurements. For measurements of IP3 and cAMP, cell lines 5.24-20 and 2.2-9 (negative control) were plated at densities of 3.5×10^5 cells/well in 24 well plates and incubated overnight in DMEM containing 10% FBS. All subsequent manipulations prior to reaction termination were performed at 37° C. in 5% CO2. […] IP3 levels were determined by a radioreceptor competition assay (Dupont NEN). For cAMP measurements, after the 3 hour amino acid-free preincubation cells were washed once with PBS, preincubated for 15 min in PBS containing 0.5 mM IBMX, and exposed to odorants in 400 μl PBS/0.5 mM IBMX for 30 min. cAMP levels were determined by radioimmunoassay (DuPont NEN).

receptor 5.24 [4] = biological target: T1, receptor 5.24; test: biochemical; format: binding
Experimental: Structure-Activity Properties of Compounds Interacting with the Cloned Goldfish Amino Acid Odorant Receptor. An understanding of how odorant receptors are used to encode olfactory information requires a characterization of the odorant specificities of individual receptor types. We therefore wished to determine the relative specificity of receptor 5.24 for structurally related ligands. […] Briefly, 3H-arginine binding to membranes from receptor 5.24-expressing HEK 293 cells was assayed in the absence or presence of varying concentrations of competitor ligands.
Mammalian Cell Culture and DNA Transfections. For cell transfections, the receptor 5.24 cDNA insert was subcloned into two expression vectors: CMVI, which utilizes a human cytomegalovirus (CMV) immediate early promoter-enhancer plus the CMV intron A sequence to drive expression, and 608RX-2.2L, which is similar to CMVI except the cDNA insert is followed by an internal ribosome entry site (IRES)—enhanced green fluorescent protein (EGFP) coding sequence; 608RX-2.2L also contains a puromycin resistance gene. For transient assays, HEK 293 cells expressing the SV40 large T antigen (293 TSA cells) were transfected with the CMVI-receptor 5.24 or CMVI control plasmid using lipofectamine (Life Technologies) and harvested at 48 hours for membrane preparations. For stable cell lines, 293-TSA cells were transfected with the 608RX-2.2L-receptor 5.24 plasmid or a control 608RX-2.2L plasmid and selected in puromycin. Colonies showing high levels of EGFP fluorescence (as judged by epifluorescence microscopy) were picked, expanded, and screened for 3H-L-arginine binding (see below).
Membrane Preparations and Ligand Binding Assays. Membranes for ligand binding assays were prepared by washing confluent cells three times with phosphate buffered saline (PBS), detaching cells with a PBS-based enzyme-free dissociation solution, and resuspending cells in ice-cold 5.0 mM Hepes, pH 7.4, 1.0 mM EDTA, 1.0 μg/ml leupeptin, 0.5 mM PMSF. All subsequent manipulations were performed on ice. After a 30 min incubation, the cell suspension was homogenized and centrifuged at 100,000×g for 30 min. Cell membrane pellets were washed twice by resuspension and centrifugation in binding buffer (20 mM Hepes, pH 7.4, 1.0 mM EDTA, 2.0 mM MgCl2, 1.0 μg/ml leupeptin, 0.5 mM PMSF), resuspended in binding buffer, and frozen at −80° C.
Saturation binding assays were performed using 20-25 μg of membrane protein in a final volume of 100 μl binding buffer and increasing concentrations of [2,3-3H] L-arginine (specific activity=40 Ci/mmol; Dupont NEN). Non-specific binding was measured in the presence of 500 μM unlabeled L-arginine. Competition assays were performed with 500 nM [2,3-3H] L-arginine and increasing concentrations of competitor ligands. All incubations were performed at 4° C. for 60 min and terminated by rapid filtration through Whatman GF/C filters pretreated with ice cold 0.1% polyethyleneimine. Filters were washed three times with 4.0 ml ice cold 20 mM Hepes, pH 7.4, and retained radioactivity was measured by scintillation counting.

For `N=C(N)NCCC[C@H](N)C(=O)O` [L-Arginine], the “fraction of olfactory neurons responding” value [1] is listed as roughly 40%, the “in vivo threshold sensitivity” value [2] is listed as “ca. 1 nM” and the “change in cAMP levels, in words” value (receptor 5.24 [3]) is listed as “does not cause a detectable change”. For the same molecule, the Ki (receptor 5.24 [4]) was 80 nM and the “binding to receptor 5.24, in words” value (receptor 5.24 [4]; comparative binding studies) was “highest affinities”.
